Read-outs that look alike come from different tables or passages of the source. Each block holds one molecule with its values, some of them ahead of it.
Experiments:
[1] = Pharmacokinetic profile in plasma; type: in vivo; settings: P.O., mice
Protocol: (§1) Blood was collected from mice (n=3, or 5) to contribute to the total of 10 time points (pre-dose, 5 min, 15 min, 30 min, 1 hour, 2 hours, 4 hours, 8 hours, 12 hours and 24 hours). At the designated time points, animals were anaesthetized under isoflurane, and approximately 110 μL of blood per time point was collected via retro-orbital puncture into pre-cooled K2EDTA tubes. Blood samples were put on wet ice and centrifuged (2000 g, 5 min at 4° C.) to obtain plasma within 30 minutes of sample collection. All samples were stored frozen at approximately −80° C. until analysis. Prior to analysis, samples were mixed with internal standard in acetonitrile, vortexed, centrifuged, and supernatant was injected for analysis. Concentration of compounds in plasma was determined using LC-MS-MS instrumentation (API 4000, Triple Quadrupole LC/MS/MS Mass Spectrometer). AUC values were calculated using Phoenix Win Nonlin 6.3 software package, PO-Noncompartmental model 200 (extravascular input).

HCN2 = test: CellTiter-Glo cell proliferation assay, HCN2 (normal brain); type: cell-based
Protocol: (§2) CellTiter-Glo® Luminescent Cell Viability assay (with Promega CellTiter 96® Luminescent CellTiter-Glo® kit) was used to study the proliferation inhibition by test compounds. Compounds were resuspended in DMSO to make a 25 mM stock suspension. Cells of cancer cell lines or normal tissues were seeded in 96-well plates at 1,500 to 5,000 cells/well overnight. Compounds were 2- or 3-fold diluted serially to obtain 10 concentrations. Then, the drugs were added to the cell wells by Bravo (Agilent) and incubated for 72 hours. The cells were lysed by adding CellTiter-Glo® Reagent (per manufacturer's instructions) and subsequently, the luminescence was read using EnVision® (PerkinElmer).
(§3) The percent of growth was calculated as follows. DMSO-treated cells were employed as vehicle control (High control, HC) and culture medium alone was employed as background (Low control, EC). % growth=100×(Lum sample−Lum EC)/(Lum HC−Lum EC). The ICso was calculated by concentration-response curve fitting using Graphpad Prism.
(§4) Hematological cancer cell lines tested included OCI-AML3, MV-4-11, KG-1, Kasumi-1, K562, THP-1; solid cancer cell lines tested included U87MG, U251, T98G, LN229, A172, H460, H2009, A549; normal cell lines tested included HCN2 and 3T3-L1. […] However, they were not toxic to in vitro cultured normal cells.

T98G = test: CellTiter-Glo cell proliferation assay, T98G; type: cell-based; settings: Homo sapiens, T98G
Protocol: as §2, §3, §4

Ratio of brain to plasma = type: in vivo; settings: rats, 10 mg/kg PO
Protocol: (§5) Following collection, brain tissue was rinsed with cold saline, dried on filter paper, weighed and snap-frozen by placing on dry ice. All samples were stored frozen at approximately −80° C. until analysis. At the time of analysis, brain tissue was homogenized (homogenizing solution PBS, pH 7.4), mixed with internal standard in acetonitrile, vortexed, centrifuged, and supernatant was injected for analysis. Concentration of compounds in plasma was determined using LC-MS-MS instrumentation (API 4000, Triple Quadrupole LC/MS/MS Mass Spectrometer). Plasma samples were treated with the identical method (except homogenization step) and the concentration of compound in each matrix was calculated based on generated standard curves.

[2] = Pharmacokinetic profile in plasma; type: in vivo; settings: mouse, iv, I. V., mice
[3] = Pharmacokinetic profile summary; type: in vivo, mice or rats; settings: for Cmax / AUC: po; for half-life: mice or rats
Protocol: as §1, §5
The pharmacokinetic profile of test compounds in mice or rats was determined from several test compounds was determined using the methods described in Example 22.

U87MG = test: CellTiter-Glo cell proliferation assay, U87MG; type: cell-based, human; settings: Homo sapiens, U-87 MG
Protocol: as §2, §3, §4

U251 = test: CellTiter-Glo cell proliferation assay, U251; type: cell-based; settings: Homo sapiens, U-251
Protocol: as §2, §3, §4

LN-229 = test: CellTiter-Glo cell proliferation assay, LN-229; type: cell-based; settings: Homo sapiens, LN-229
Protocol: as §2, §3, §4

XPO1 = XPO1 (Homo sapiens, UniProt O14980); test: REV-GFP translocation assay in U2OS cells; type: cell-based; set-up: endogenous in cells; host or cells: U2OS cells stably expressing REV-GFP (clones from HD Biosciences); settings: for IC50: Table 10
Protocol: LTD in China, and cells were cultured with growth medium. […] The highest Leptomycin B (LMB) concentration was set to 50 nM and serially diluted as the positive control, while the highest concentrations of other compounds were set to 10 μM. The cells treated with various drugs or DMSO, were incubated at 37° C. and 5% CO2 for 1 h. Then, cells were fixed with 4% formaldehyde for 15 min at room temperature. The cells were washed and stained with 100 μL Hoechst 33342 working solution for 10 min at room temperature in dark, after which the cell fluorescence was imaged with the High-Content Imaging System, ImageXpress® (Molecular Devices) using the 20× objective. The filters were set for Hoechst (350/461 nm) and GFP/FITC (488/509 nm) (wavelength for excitation and emission maxima). The % effect of REV nuclear translocation was calculated with the following formula: % effect=([…]- signals from testing compounds; ILMB-signals of 50 nM LMB group; ICTRL-signals of vehicle control group.

C8-B4 = test: Cytotoxicity, cell proliferation assay, C8-B4; type: cell-based; settings: Table 8
Protocol: as §2, §3
(§6) The cytotoxicity of test compounds in brain (HCN2), colon cancer (HCT116) and normal colon cell (C8-B4) lines was determined using the cell proliferation assay as described in Example 19.

CRM1 = molecular target: T1, CRM1 (Homo sapiens, UniProt O14980); test: PD effects by IHC in U87MG-luc orthotopic model, CRM1; type: in vivo, mice; settings: orally three times a week for 2 weeks; vs vehicle control
T1 construct: from tissue; host or cells: U87MG-luc orthotopic xenograft tumours in mouse brain
Protocol: (§7) Based on the bioluminescent signal of tumor, mice were randomly assigned to respective groups using a computer-generated randomization procedure, which included vehicle and compound III-treated groups, respectively, with 5 animals per group. Compound III (20 mg/kg) was given orally 3 times a week (on Day 1, 3, 5) for 2 weeks. Animals for IHC study were euthanized at 6 hours after the last dose and perfused with normal saline followed by fixation with 4% paraformaldehyde. Entire brains containing tumors were collected and kept in fixative for 24 hours before proceeding for paraffin block.

HCT116 = test: Cytotoxicity, cell proliferation assay, HCT116 colon cancer; type: cell-based; settings: Table 8
Protocol: as §2, §3, §6

3T3 = test: Cytotoxicity, cell proliferation assay, 3T3; type: cell-based; settings: Mus musculus, NIH3T3; Table 9
Protocol: as §2, §3
The cytotoxicity of test compounds was also determined in glioblastoma (U87MG)), brain (HCN2) and 3T3 cell lines was determined using the cell proliferation assay as described in Example 19.

U87MG cells = test: Capase-Glo 317 apoptosis assay; type: cell-based; settings: Homo sapiens, U-87 MG, 72 hours
Protocol: A Capase-Glo® 317 assay was used to determine the apoptosis activity of test compounds in U87MG cells.
Compounds were dissolved in 25 mM DMSO stock solution and serially diluted. DMSO was used as the vehicle control (high control, HC) and culture medium was used as the background (low control LC). The test compounds were applied to plates and spun at 25° C. at 1,000 RPM for 1 min and shaken on a plate shaker for 2 min. Samples (80 nL) of the compounds from the plates were transferred to 384-well cell culture plates using a liquid handler.
Cells were harvested and the cell numbers counted. 40 μL of the cell suspension with the adjusted density was added to 384-well cell culture pates. The final cell density is 1,000 cells/well. Cell culture medium only was used in the low control (LC) samples. The plates were covered with a lid and placed in a 5% CO2 incur at 37° C. for 72 hours.
After incubating for 72 hours, the plates were removed from the incubator and equilibrated at 25° C. for 15 minutes. CellTiter Glo® regen was incubated at 37° C. before the experiments. 40 μL of Capase-Glo® 317 was added into each well to be detected at a 1:1 ratio to culture medium. The plates were then placed at 25° C. for 30 min and read using an EnSpire® Plate Reader.
The % activity remaining was determined using the following formula: % Remaining Activity=[…]×(Lumsample−LumLC)/(LumHC−LUM LC), where HC is obtained from cells treated with 0.1% DMSO only, LC is obtained from culture medium only.

A-172 = test: CellTiter-Glo cell viability assay, A-172; type: cell-based; settings: Homo sapiens, Table 6
Protocol: as §2, §3
The inhibition activity of test compounds was determined in A-172, U87MG and 3T3-L1 cell lines.
A CellTiter-Glo® luminescent cell viability assay was performed s described in Example 1.

in vivo = settings: female, BALB/c Nude, mouse
[4] = 25 mg/kg p.o., qod x 3 per week, two weeks; BALB/c Nude mice
3T3-L1 = test: CellTiter-Glo cell proliferation assay, 3T3-L1 (normal); type: cell-based; settings: Mus musculus, 3T3-L1; Table 6; read-out: 3T3-L1 IC50
Protocol: as §2, §3, §4

Ki67 = test: PD effects by IHC in U87MG-luc orthotopic model, Ki67; type: in vivo, mice; settings: orally three times a week for 2 weeks; vs vehicle control
Protocol: as §7

[5] = Table 11, read-out: Absolute IC50 (μM) T98G
[6] = 72 hours, Table 1, read-out: Growth inhibition (IC50)
[7] = 10 mg/kg, plasma, 10 mpk, read-out: Cmax (ng/ml) plasma/10 mpk
[8] = Table 9, first value column, read-out: U87MG IC50
[9] = Table 9, second value column, read-out: U87MG IC50
[10] = Table 11, read-out: Absolute IC50 (μM) U251
[11] = Table 11, read-out: Absolute IC50 (μM) LN-229

XPO1, sequence (O14980 whole entry): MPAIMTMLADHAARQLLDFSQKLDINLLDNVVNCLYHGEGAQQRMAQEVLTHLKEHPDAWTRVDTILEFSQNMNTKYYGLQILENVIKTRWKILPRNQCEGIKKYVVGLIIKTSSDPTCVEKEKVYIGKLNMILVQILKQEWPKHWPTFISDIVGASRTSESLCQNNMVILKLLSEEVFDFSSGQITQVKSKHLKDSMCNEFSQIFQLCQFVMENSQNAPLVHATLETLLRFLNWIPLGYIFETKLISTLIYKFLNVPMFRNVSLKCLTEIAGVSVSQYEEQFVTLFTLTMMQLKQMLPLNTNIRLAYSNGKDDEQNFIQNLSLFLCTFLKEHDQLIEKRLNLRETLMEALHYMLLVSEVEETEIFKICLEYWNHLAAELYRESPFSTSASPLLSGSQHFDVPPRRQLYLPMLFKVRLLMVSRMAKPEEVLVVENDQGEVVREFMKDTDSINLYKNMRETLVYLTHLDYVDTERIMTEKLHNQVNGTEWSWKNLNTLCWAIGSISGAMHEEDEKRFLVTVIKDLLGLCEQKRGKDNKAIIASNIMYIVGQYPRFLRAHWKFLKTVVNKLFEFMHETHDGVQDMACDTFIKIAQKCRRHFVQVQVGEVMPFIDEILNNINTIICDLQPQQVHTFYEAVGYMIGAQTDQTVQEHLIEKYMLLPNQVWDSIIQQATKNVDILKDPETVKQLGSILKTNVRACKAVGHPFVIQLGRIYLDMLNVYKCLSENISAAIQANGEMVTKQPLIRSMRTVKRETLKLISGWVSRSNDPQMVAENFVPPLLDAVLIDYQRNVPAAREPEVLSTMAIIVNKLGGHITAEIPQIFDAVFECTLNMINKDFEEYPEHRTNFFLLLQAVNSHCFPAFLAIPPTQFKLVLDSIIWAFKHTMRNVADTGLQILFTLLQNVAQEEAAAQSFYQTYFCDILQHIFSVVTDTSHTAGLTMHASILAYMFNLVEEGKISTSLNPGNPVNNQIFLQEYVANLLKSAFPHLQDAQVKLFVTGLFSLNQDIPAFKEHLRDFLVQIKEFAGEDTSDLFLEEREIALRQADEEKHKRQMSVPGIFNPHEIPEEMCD
T1 sequence (O14980 whole entry): as above

AUG0-inf [1]: 13905 ng·h/mL
Cmax ([1]; mouse, po): 1600 ng/mL
Tmax ([1]; mouse, po): 2 h
half-life ([1]; mouse, po): 4.72 h
MRT inf ([1]; mouse, po, read-out: MRT0-inf): 7.84 h
MRT last ([1]; mouse, po, read-out: MRT0-last): 6.9 h
Kp at 0.25 h (Ratio of brain to plasma; rat, brain/plasma, 0.25 h): 0.716
Kp at 1 h (Ratio of brain to plasma; rat, brain/plasma, 1 h): 0.954
Kp at 8 h (Ratio of brain to plasma; rat, brain/plasma, 8 h): 1.4
brain concentration (second number of pair) (Ratio of brain to plasma; 0.25 h): 301 ng/g
plasma concentration (first number of pair) (Ratio of brain to plasma; 0.25 h): 419 ng/g
brain concentration (second number of pair) (Ratio of brain to plasma; 1 h): 1191 ng/g
plasma concentration (first number of pair) (Ratio of brain to plasma; 1 h): 1274 ng/g
brain concentration (second number of pair) (Ratio of brain to plasma; 8 h): 937 ng/g
plasma concentration (first number of pair) (Ratio of brain to plasma; 8 h): 677 ng/g
AUC(0-t) [2]: 1620 ng·h/mL
C0 [2]: 558 ng/mL
clearance [2]: 10 mL/min/kg
half-life [2]: 3.82 h
MRT last ([2]; read-out: MRT0-last): 4.76 h
Vd ([2]; read-out: Vdss): 3.2 L/kg
Kp ([3]; mouse, brain/plasma, 5 mpk/mice/AUC Ratio, read-out: B/P ratio): 1.58
Cmax ([3]; mouse, 5 mg/kg, 5 mpk/mice, first number of Plasma/brain pair, read-out: Cmax/(ng/mL) Plasma): 1040 ng/mL
Cmax ([3]; mouse, 5 mg/kg, 5 mpk/mice, second number of Plasma/brain pair, read-out: Cmax/(ng/mL) brain): 1770 ng/mL
AUC ([3]; plasma, 10 mg/kg, 10 mpk): 4150 ng·h/mL
half-life ([3]; plasma): 6.9 h
Cmax [3, 7]: 796 ng/mL
IC50 (U87MG; 72 h, U87MG, 72 hours, Table 1, read-out: Growth inhibition (IC50)): 630 nM
IC50 (U87MG; [8]): 537 nM
IC50 (U87MG; [9]): 723 nM
IC50 (U251; [10]): 2.3 µM
IC50 (U251; U251, 72 hours, Table 1, read-out: Growth inhibition (IC50)): 2.34 µM
EC50 (XPO1; REV-EGFP U2OS cells, 1 h, Table 2, read-out: Rev-GFP/EC50): 0.0285 µM
IC50 (XPO1; first (or only) value of the cell): 35.2 nM
IC50 (XPO1; second value of the cell): 21.8 nM
EC50 (XPO1; Table 13, read-out: Rev-GFP assay/μM): 0.035 µM
Compound: O=C(/C=C\n1cnc(-c2cc(C(F)(F)F)cc(S(F)(F)(F)(F)F)c2)n1)NNc1ccccn1 [Compound II, (Z)-3-(3-(3-(Pentafluorosulfanyl)-5-(trifluoromethyl)phenyl)-1H-1,2,4-triazol-1-yl)-N′-(pyridin-2-yl)acrylohydrazide]
IC50 (HCN2; 72 h, HCN2 normal cell line, 72 hours, Table 1, read-out: Growth inhibition (IC50)): 44700 nM
IC50 (HCN2; Table 9, read-out: HCN2 IC50): 44700 nM
IC50 (T98G; [5]): 1.9 µM
IC50 (T98G; [6]): 1.92 µM
IC50 (LN-229; [11]): 0.8 µM
IC50 (LN-229; [6]): 0.805 µM

Compound: O=C(/C=C\n1cnc(-c2cc(C(F)(F)F)cc(C(F)(F)F)c2)n1)NNc1cnccn1 [KPT-330, (Z)-3-(3-(3,5-bis(trifluoromethyl)phenyl)-1H-1,2,4-triazol-1-yl)-N′-(pyrazin-2-yl)acrylohydrazide, reference compound]
HCN2 Max % inh (HCN2; Table 8): 99%
IC50 (HCN2; Table 8, read-out: HCN2 IC50): 30700 nM
IC50 (HCN2; Table 9, read-out: HCN2 IC50): 34200 nM
IC50 (T98G; [5]): 0.8 µM
IC50 (C8-B4; C8-B4): 1270 nM
C8-B4 Max % inh (C8-B4): 100%
expression of CRM1 in tumors (IHC) (CRM1): significantly decreased
IC50 (HCT116; Homo sapiens, HCT-116): 2130 nM
HCT116 Max % inh (HCT116): 98%
IC50 (3T3): > 50000 nM
AUC ([3]; plasma, 10 mg/kg, 10 mpk): 8420 ng·h/mL
half-life ([3]; plasma): 1.7 h
Cmax [3, 7]: 2520 ng/mL
EC50 (U87MG cells): 12600 nM
Emax (U87MG cells; U87MG): 398%
IC50 (U87MG; Table 6, read-out: U87MG IC50): 129 nM
IC50 (U87MG; [8]): 520 nM
IC50 (U87MG; [9]): 710 nM
IC50 (A-172): 224 nM
MTD (in vivo): 15 mg/kg
survival in MTD study [4]: all mice were dead, or anaesthetized for the weight lost up to 20%
IC50 (3T3-L1): > 50000 nM
IC50 (U251; [10]): 1 µM
IC50 (LN-229; [11]): 0.3 µM
expression of Ki67 in tumors (IHC) (Ki67): significantly decreased
